As usually defined, the IC50 is the concentration needed to halve the response being measured. As usually defined, the chromatographic logD is a lipophilicity value derived from retention on a column.

Molecules are shown by their SMILES.

One data set has as its system PD-L1. The conditions noted are these: literature IC50 as stated in the original patent; read-out: Lit. IC50; cited from earlier work.
The nature of data set [1]: Lipophilicity by HPLC method (μHPLC logD). As to conditions: for chromatographic logD: pH 7.4, μHPLC logD; for μHPLC logD: pH 7.4.
The target of the next data set is T1, human PD-L1 (Homo sapiens, UniProt Q9NZQ7).
T1 construct: purchased Cisbio Bioassays SAS, Codolet, France 64PD1PEG
Briefly: HTRF PD-1/PD-L1 binding assay (cell-free). The conditions noted are these: for IC50: cell-free competitive PD-1/PD-L1 HTRF, mean ± SD, read-out: IC50 (hPD-L1 binding affinity, HTRF); for fold reduction of affinity, pyrrole at R1 vs 1,4-benzodioxanyl analogue: pairs 4c vs 4m, 4e vs 4n, 4f vs 4o, 5c vs 5f; for fold decrease in affinity by fluoroethylation / fluoroethyl carbamylation at R3*: pairs 4f vs 5h, 4j vs 5j. On the technique in general: TR-FRET usually uses a lanthanide donor and a delayed reading to cut background.

T1 sequence (Q9NZQ7 19-238 limits assumed): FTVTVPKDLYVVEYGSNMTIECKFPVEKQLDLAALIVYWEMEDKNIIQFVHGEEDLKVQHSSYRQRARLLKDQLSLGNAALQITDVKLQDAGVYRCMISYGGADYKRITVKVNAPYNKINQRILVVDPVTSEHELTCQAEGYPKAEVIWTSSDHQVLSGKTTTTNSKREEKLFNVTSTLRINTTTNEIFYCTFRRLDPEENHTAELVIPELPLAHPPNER

In the case of `Cc1c(COc2cc(OCc3cncc(C(=O)O)c3)c(CN[C@@H](CCCN)C(=O)O)cc2Cl)cccc1-c1ccc2c(c1)OCCO2` [BMS-2002], the IC50 with PD-L1 is 10 nM.
Consider `Cc1cc(CNCCO)c(OCc2cncc(C#N)c2)cc1OCc1cccc(-c2ccc3c(c2)OCCO3)c1C#N` [BMS-1306], for which the IC50 in the data set on PD-L1 is 0.92 nM.
In data set [1], `Cc1c(COc2cc(OCc3ccnc(C#N)c3)c(CNCCOCCOCCOCCOCCC(=O)O)cc2Cl)cccc1-c1ccc2c(c1)OCCO2` [Compound 4g, 1-(5-Chloro-2-((2-cyanopyridin-4-yl)methoxy)-4-((3-(2,3-dihydrobenzo [b][1,4]dioxin-6-yl)-2-methylbenzyl)oxy)phenyl)-5,8,11,14-tetraoxa-2-azaheptadecan-17-oic Acid] gave a chromatographic logD of 3.42 ± 0.05. The IC50 at human PD-L1 stood at 46 ± 5 nM.
`CC(=O)NCCNCc1ccc(OCc2cccc(-c3ccccc3)c2C)cc1OCc1cccc(OC(F)(F)F)c1` [BMS-1082]: the IC50 with PD-L1 was 828 nM.
On to `Cc1c(COc2cc(OCc3cccc(C#N)c3)c(CNC3(C(=O)O)CCN(C)CC3)cc2Cl)cccc1-c1ccc2c(c1)OCCO2` [BMS-1220], for which, in the data set on PD-L1, the IC50 was 6.07 nM.
In the case of `Cc1c(COc2cc(OCc3ccnc(C#N)c3)c(CN[C@H](CO)C(=O)O)cc2Cl)cccc1-n1cccc1` [Compound 4m, (5-Chloro-2-((2-cyanopyridin-4-yl)methoxy)-4-((2-methyl-3-(1H-pyrrol-1-yl)benzyl)oxy)benzyl)-D-serine], the chromatographic logD in data set [1] was 2.83 ± 0.04. In addition, the “fold reduction of affinity, pyrrole at R1 vs 1,4-benzodioxanyl analogue” value (shortened to “fold reduction … vs 1,4-benzodioxanyl analogue”) at human PD-L1 (IC50 ratio) came out at 1.03 fold. Besides, at human PD-L1, the IC50 turned out to be 6 ± 1 nM.
Consider `Cc1c(COc2cc(OCc3cccc(C#N)c3)c(CNC(C(=O)O)C(C)(C)O)cc2Cl)cccc1-c1ccc2c(c1)OCCO2` (stereo not shown) [BMS-1210], for which, in the data set with PD-L1, the IC50 was 12.7 nM.
As to `Cc1c(COc2cc(OCc3ccnc(C#N)c3)c(CN3CCCC[C@H]3C(=O)O)cc2Cl)cccc1-n1cccc1` [Compound 4o, (S)-1-(5-Chloro-2-((2-cyanopyridin-4-yl)methoxy)-4-((2-methyl-3-(1H-pyrrol-1-yl)benzyl)oxy)benzyl)piperidine-2-carboxylic Acid], in data set [1], the chromatographic logD came out at 3.14 ± 0.01. Also, the “fold reduction … vs 1,4-benzodioxanyl analogue” value on human PD-L1 (IC50 ratio) turned out to be 5.99 fold. Besides, the IC50 on human PD-L1 was 29 ± 3 nM.
With `Cc1c(COc2cc(OCc3ccnc(C#N)c3)c(CN3CCCC[C@H]3C(=O)O)cc2Cl)cccc1-c1ccc2c(c1)OCCO2` [Compound 4f, (S)-1-(5-Chloro-2-((2-cyanopyridin-4-yl)methoxy)-4-((3-(2,3-dihydrobenzo [b][1,4]dioxin-6-yl)-2-methylbenzyl)oxy)benzyl)piperidine-2-carboxylic Acid], the chromatographic logD in data set [1] amounted to 3.64 ± 0.09. At human PD-L1, the IC50 was determined as 4.9 ± 0.3 nM.
Turning to `CC(=O)NCCN(Cc1cc(Cl)c(OCc2cccc(-c3ccc4c(c3)OCCO4)c2C)cc1OCc1cccc(C#N)c1)C(=O)OCCF` [Compound 5j, 2-Fluoroethyl (2-acetamidoethyl)(5-chloro-2-((3-cyanobenzyl)oxy)-4-((3-(2,3-dihydrobenzo[b][1,4]dioxin-6-yl)-2-methylbenzyl)oxy)benzyl)carbamate], in data set [1], the chromatographic logD is 4.9 ± 0.3. The “fold decrease in affinity by fluoroethylation / fluoroethyl carbamylation at R3*” value at human PD-L1 (IC50 ratio) was 160 fold. Moreover, on human PD-L1, the IC50 was 1700 nM.
In the case of `CC(=O)NCCNCc1cc(Cl)c(OCc2cccc(-c3ccc4c(c3)OCCO4)c2C)cc1OCc1cccc(C#N)c1` [Compound 4j, N-(2-((5-Chloro-2-((3-cyanobenzyl)oxy)-4-((3-(2,3-dihydrobenzo[b][1,4]dioxin-6-yl)-2-methylbenzyl)oxy)benzyl)amino)ethyl)acetamide], in data set [1], the “μHPLC logD” value came to 4.7 ± 0.2 and the chromatographic logD was 4.73 ± 0.24. For the same compound, the IC50 at human PD-L1 turned out to be 11 ± 1 nM.
With `C#CCOC(=O)NCCCC[C@H](NCc1cc(Cl)c(OCc2cccc(-c3ccc4c(c3)OCCO4)c2C)cc1OCc1ccnc(C#N)c1)C(=O)O` [Compound 4i, N^2-(5-Chloro-2-((2-cyanopyridin-4-yl)methoxy)-4-((3-(2,3-dihydrobenzo[b][1,4]dioxin-6-yl)-2-methylbenzyl)oxy)benzyl)-N^6-((prop-2-yn-1-yloxy)carbonyl)-L-lysine], the chromatographic logD in data set [1] turned out to be 3.47 ± 0.06. For the same compound, at human PD-L1, the IC50 came out at 3.7 ± 0.5 nM.
In data set [1], `Cc1c(COc2cc(OCc3cocn3)c(CN3CCCC[C@H]3C(=O)O)cc2Cl)cccc1-c1ccc2c(c1)OCCO2` [Compound 4l, (S)-1-(5-Chloro-4-((3-(2,3-dihydrobenzo[b][1,4]dioxin-6-yl)-2-methylbenzyl)oxy)-2-(oxazol-4-ylmethoxy)benzyl)piperidine-2-carboxylic Acid] had a chromatographic logD of 3.39 ± 0.04. At human PD-L1, the IC50 was 16 ± 3 nM.
The matching figures for `Cc1c(COc2cc(OCc3ccnc(C#N)c3)c(CN[C@H](CO)C(=O)O)cc2Cl)cccc1-c1ccc2c(c1)OCCO2` [Compound 4c, (5-Chloro-2-((2-cyanopyridin-4-yl)methoxy)-4-((3-(2,3-dihydrobenzo[b][1,4]dioxin-6-yl)-2-methylbenzyl)oxy)benzyl)-D-serine]: 3.25 ± 0.03 and 6.1 ± 0.3 nM.
`Cc1c(COc2cc(OCc3ccnc(C#N)c3)c(CNCCF)cc2Cl)cccc1-c1ccc2c(c1)OCCO2` [Compound 5i, 4-((4-Chloro-5-((3-(2,3-dihydrobenzo[b][1,4]dioxin-6-yl)-2-methylbenzyl)oxy)-2-(((2-fluoroethyl)amino)methyl)phenoxy)methyl)picolinonitrile]: in data set [1], the “μHPLC logD” value is reported as 5.2 ± 0.3 and the chromatographic logD came to 5.21 ± 0.31. For the same compound, at human PD-L1, the IC50 was 12 ± 1 nM.
For the compound `CC(=O)NCCNCc1cc(Cl)c(OCc2cccc(-c3ccc4c(c3)OCCO4)c2C)cc1OCc1ccnc(C#N)c1` [Compound 4d, N-(2-((5-Chloro-2-((2-cyanopyridin-4-yl)methoxy)-4-((3-(2,3-dihydrobenzo [b][1,4]dioxin-6-yl)-2-methylbenzyl)oxy)benzyl)amino)ethyl)acetamide], in data set [1], the “μHPLC logD” value is 4.5 ± 0.2 and the chromatographic logD amounted to 4.45 ± 0.2. The half-inhibitory concentration (IC50) at human PD-L1 amounted to 9.2 ± 0.6 nM.
The matching figures for `Cc1c(COc2cc(OCc3ccnc(C#N)c3)c(CNCCO)cc2Cl)cccc1-c1ccc2c(c1)OCCO2` [Compound 4e, 4-((4-Chloro-5-((3-(2,3-dihydrobenzo[b][1,4]dioxin-6-yl)-2-methylbenzyl)oxy)-2-(((2-hydroxyethyl)amino)methyl)phenoxy)methyl)picolinonitrile]: 4.7 ± 0.2, 4.71 ± 0.24 and 7.7 ± 0.6 nM.
On the same counts, the results for `CC(=O)N1CCN(Cc2cc(Cl)c(OCc3cccc(-c4ccc5c(c4)OCCO5)c3C)cc2OCc2cccc(C#N)c2)C1=O` [Compound 5e, 3-((2-((3-Acetyl-2-oxoimidazolidin-1-yl)methyl)-4-chloro-5-((3-(2,3-dihydrobenzo[b][1,4]dioxin-6-yl)-2-methylbenzyl)oxy)phenoxy)methyl)benzonitrile] are 5.6 ± 0.4, 5.61 ± 0.37 and 589 ± 178 nM.
As for `Cc1c(COc2cc(OCc3ccnc(C#N)c3)c(CN3CCOC3CF)cc2Cl)cccc1-c1ccc2c(c1)OCCO2` (stereo not shown) [Compound 5g, 4-((4-Chloro-5-((3-(2,3-dihydrobenzo[b][1,4]dioxin-6-yl)-2-methylbenzyl)oxy)-2-((2-(fluoromethyl)oxazolidin-3-yl)methyl)phenoxy)methyl)picolinonitrile], the chromatographic logD in data set [1] is greater than 5.75. Moreover, at human PD-L1, the IC50 is 12 ± 2 nM.
Turning to `Cc1c(COc2cc(OCc3ccnc(C#N)c3)c(CNCCO)cc2Cl)cccc1-n1cccc1` [Compound 4n, 4-((4-Chloro-2-(((2-hydroxyethyl)amino)methyl)-5-((2-methyl-3-(1H-pyrrol-1-yl)benzyl)oxy)phenoxy)methyl)picolinonitrile], in data set [1], the “μHPLC logD” value stood at 4.3 ± 0.2 and the chromatographic logD is 4.34 ± 0.18. In addition, the “fold reduction … vs 1,4-benzodioxanyl analogue” value on human PD-L1 (IC50 ratio) was 6.40 fold. The IC50 at human PD-L1 was determined as 50 ± 3 nM.
As to `Cc1c(COc2cc(OCc3ccnc(C#N)c3)c(CN3CCCC[C@H]3C(=O)OCCF)cc2Cl)cccc1-c1ccc2c(c1)OCCO2` [Compound 5h, 2-Fluoroethyl (S)-1-(5-Chloro-2-((2-cyanopyridin-4-yl)methoxy)-4-((3-(2,3-dihydrobenzo[b][1,4]dioxin-6-yl)-2-methylbenzyl)oxy)benzyl)piperidine-2-carboxylate], the chromatographic logD in data set [1] is greater than 5.75. Moreover, at human PD-L1 (IC50 ratio), the “fold decrease in affinity by fluoroethylation / fluoroethyl carbamylation at R3*” value stood at 265 fold. Further, the IC50 at human PD-L1 came out at 1290 nM.
On to `C#CCC[C@H](NCc1cc(Cl)c(OCc2cccc(-c3ccc4c(c3)OCCO4)c2C)cc1OCc1ccnc(C#N)c1)C(=O)O` [Compound 4h, (S)-2-((5-Chloro-2-((2-cyanopyridin-4-yl)methoxy)-4-((3-(2,3-dihydrobenzo [b][1,4]dioxin-6-yl)-2-methylbenzyl)oxy)benzyl)amino)hex-5-ynoic Acid], for which the chromatographic logD in data set [1] was determined as 3.42 ± 0.05. At human PD-L1, the IC50 came out at 8.2 ± 1.8 nM.
On to `COCCNCc1cc(Cl)c(OCc2cccc(-c3ccc4c(c3)OCCO4)c2C)cc1OCc1ccnc(C#N)c1` [Compound 5d, 4-((4-Chloro-5-((3-(2,3-dihydrobenzo[b][1,4]dioxin-6-yl)-2-methylbenzyl)oxy)-2-(((2-methoxyethyl)amino)methyl)phenoxy)methyl)picolinonitrile], for which, in data set [1], the “μHPLC logD” value worked out at 5.1 ± 0.3 and the chromatographic logD stood at 5.09 ± 0.29. The “fold decrease in affinity by methylation at R3*” value at human PD-L1 (IC50 ratio, pairs 4c vs 5a, 4c vs 5b, 4e vs 5c, 4e vs 5d) was 2.42 fold. Further, the half-inhibitory concentration (IC50) on human PD-L1 was 19 ± 4 nM.
`Cc1c(COc2cc(OCc3ccnc(C#N)c3)c(CN(C)CCO)cc2Cl)cccc1-n1cccc1` [Compound 5f, 4-((4-Chloro-2-(((2-hydroxyethyl)(methyl)amino)methyl)-5-((2-methyl-3-(1H-pyrrol-1-yl)benzyl)oxy)phenoxy)methyl)picolinonitrile]: in data set [1], the “μHPLC logD” value was found to be 4.5 ± 0.2 and the chromatographic logD turned out to be 4.54 ± 0.21. Also, the “fold reduction … vs 1,4-benzodioxanyl analogue” value at human PD-L1 (IC50 ratio) amounted to 1.61 fold. Further, the IC50 on human PD-L1 stood at 16 ± 4 nM.

The record behind these values is PMC10945501, “Development and In Vivo Evaluation of Small-Molecule Ligands for Positron Emission Tomography of Immune Checkpoint Modulation Targeting Programmed Cell Death 1 Ligand 1” (Journal of Medicinal Chemistry, 2024).
